Results reported in publication PMC2174402 (Environmental Health Perspectives, 2007).
pEC50, pIC50: −log10 of the molar value. Where “and” joins values, the source holds several entries; their conditions need not be identical. Identical values can stand only once. Like-named read-outs stand apart in the source and are kept apart here. Marks after values point to notes of the source that are not given here.

Assays:
[1] = molecular target: aryl hydrocarbon receptor (AhR) (Mus musculus, UniProt P30561); test: AhR-CALUX
[2] = molecular target: T1, human estrogen receptor (ER) (Homo sapiens, UniProt P03372); test: cell-based; assay type: cell-based; settings: for LOEC (lowest effect concentration), ER / MOEC (maximal effect concentration), ER: 24 hr
T1 sequence (P03372 1-595): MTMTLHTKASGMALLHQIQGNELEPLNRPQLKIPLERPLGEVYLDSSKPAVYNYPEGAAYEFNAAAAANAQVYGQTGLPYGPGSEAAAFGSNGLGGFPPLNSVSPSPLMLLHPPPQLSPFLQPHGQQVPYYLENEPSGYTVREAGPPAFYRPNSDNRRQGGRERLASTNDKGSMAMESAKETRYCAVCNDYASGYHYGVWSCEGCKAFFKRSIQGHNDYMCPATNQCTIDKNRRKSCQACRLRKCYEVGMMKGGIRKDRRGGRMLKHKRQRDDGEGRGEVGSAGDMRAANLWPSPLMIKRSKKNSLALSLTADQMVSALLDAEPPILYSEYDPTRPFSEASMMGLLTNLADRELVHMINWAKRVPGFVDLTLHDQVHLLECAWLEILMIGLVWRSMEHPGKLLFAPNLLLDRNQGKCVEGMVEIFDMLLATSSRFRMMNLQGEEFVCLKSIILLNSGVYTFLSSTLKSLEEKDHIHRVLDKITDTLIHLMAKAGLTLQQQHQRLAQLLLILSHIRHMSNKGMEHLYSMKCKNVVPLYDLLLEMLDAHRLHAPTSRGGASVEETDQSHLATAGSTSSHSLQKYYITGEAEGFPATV

aromatase (CYP19) = molecular target: T2, aromatase (CYP19) (Homo sapiens, UniProt P11511); test: Aromatase activity in JEG-3 choriocarcinoma cells; assay type: cell-based; settings: for LOEC, aromatase (inhibited activity) / MOEC, aromatase (inhibited activity) / concentration (range) of significant aromatase inhibition: 18 hr exposure; for Maximum % (maximum down-regulation / maximum inhibition, MI), aromatase: control 10 nM 4-AD set to 100%, at the MOEC
T2 sequence (P11511 1-503): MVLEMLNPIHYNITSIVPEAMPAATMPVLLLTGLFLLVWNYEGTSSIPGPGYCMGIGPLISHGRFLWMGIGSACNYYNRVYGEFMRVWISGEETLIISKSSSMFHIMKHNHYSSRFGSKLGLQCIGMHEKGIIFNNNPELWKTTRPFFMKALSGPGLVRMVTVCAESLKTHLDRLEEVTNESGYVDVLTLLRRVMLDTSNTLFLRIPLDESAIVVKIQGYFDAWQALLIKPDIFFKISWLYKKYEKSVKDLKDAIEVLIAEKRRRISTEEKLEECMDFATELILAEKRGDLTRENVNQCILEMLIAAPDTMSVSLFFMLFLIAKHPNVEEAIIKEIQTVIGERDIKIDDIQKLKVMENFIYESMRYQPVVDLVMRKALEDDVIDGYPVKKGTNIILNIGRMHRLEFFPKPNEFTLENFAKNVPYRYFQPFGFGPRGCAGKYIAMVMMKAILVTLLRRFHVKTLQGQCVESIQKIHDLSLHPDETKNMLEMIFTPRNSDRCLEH

CHO cells = test: Cytotoxicity in the AR assay; assay type: cell-based, Chinese hamster; settings: for Cytotox (M), AR assay: pSVAR13
[3] = molecular target: T3, human androgen receptor (AR) (Homo sapiens, UniProt P10275); test: cell-based; assay type: cell-based
T3 sequence (P10275 1-920): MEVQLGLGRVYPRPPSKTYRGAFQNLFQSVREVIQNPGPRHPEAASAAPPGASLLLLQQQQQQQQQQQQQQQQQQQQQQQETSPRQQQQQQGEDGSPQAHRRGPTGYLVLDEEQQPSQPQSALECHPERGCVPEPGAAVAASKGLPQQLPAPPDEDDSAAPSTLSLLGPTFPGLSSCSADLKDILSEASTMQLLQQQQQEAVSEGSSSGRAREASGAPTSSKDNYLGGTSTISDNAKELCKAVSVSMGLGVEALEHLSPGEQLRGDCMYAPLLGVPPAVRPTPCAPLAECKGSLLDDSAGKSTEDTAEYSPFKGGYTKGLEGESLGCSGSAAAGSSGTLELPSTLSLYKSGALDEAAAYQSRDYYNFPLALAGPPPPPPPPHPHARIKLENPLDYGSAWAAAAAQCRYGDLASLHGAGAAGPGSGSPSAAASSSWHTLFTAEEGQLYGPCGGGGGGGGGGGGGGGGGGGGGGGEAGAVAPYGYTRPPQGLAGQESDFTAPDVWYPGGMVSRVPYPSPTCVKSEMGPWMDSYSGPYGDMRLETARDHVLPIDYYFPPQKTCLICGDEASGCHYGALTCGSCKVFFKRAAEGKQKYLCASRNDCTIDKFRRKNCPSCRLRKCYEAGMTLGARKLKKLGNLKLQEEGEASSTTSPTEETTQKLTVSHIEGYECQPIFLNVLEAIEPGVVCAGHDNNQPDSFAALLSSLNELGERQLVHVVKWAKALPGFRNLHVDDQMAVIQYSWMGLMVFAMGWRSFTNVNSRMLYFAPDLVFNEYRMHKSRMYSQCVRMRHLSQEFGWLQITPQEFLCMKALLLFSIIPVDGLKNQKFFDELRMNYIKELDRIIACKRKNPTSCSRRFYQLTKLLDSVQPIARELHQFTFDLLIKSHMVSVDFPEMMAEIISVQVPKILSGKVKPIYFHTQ

Hepa1.12cR cells = test: Cell cytotoxicity / proliferation for the AhR-CALUX assay
JEG-3 cells = test: Cell cytotoxicity for the aromatase assay; assay type: cell-based, human
[4] = chemical alone, Hepa1.12cR cells
[5] = co-exposure with 0.1 nM R1881, CHO cells

aryl hydrocarbon receptor (AhR), sequence (P30561 10-805 limits assumed): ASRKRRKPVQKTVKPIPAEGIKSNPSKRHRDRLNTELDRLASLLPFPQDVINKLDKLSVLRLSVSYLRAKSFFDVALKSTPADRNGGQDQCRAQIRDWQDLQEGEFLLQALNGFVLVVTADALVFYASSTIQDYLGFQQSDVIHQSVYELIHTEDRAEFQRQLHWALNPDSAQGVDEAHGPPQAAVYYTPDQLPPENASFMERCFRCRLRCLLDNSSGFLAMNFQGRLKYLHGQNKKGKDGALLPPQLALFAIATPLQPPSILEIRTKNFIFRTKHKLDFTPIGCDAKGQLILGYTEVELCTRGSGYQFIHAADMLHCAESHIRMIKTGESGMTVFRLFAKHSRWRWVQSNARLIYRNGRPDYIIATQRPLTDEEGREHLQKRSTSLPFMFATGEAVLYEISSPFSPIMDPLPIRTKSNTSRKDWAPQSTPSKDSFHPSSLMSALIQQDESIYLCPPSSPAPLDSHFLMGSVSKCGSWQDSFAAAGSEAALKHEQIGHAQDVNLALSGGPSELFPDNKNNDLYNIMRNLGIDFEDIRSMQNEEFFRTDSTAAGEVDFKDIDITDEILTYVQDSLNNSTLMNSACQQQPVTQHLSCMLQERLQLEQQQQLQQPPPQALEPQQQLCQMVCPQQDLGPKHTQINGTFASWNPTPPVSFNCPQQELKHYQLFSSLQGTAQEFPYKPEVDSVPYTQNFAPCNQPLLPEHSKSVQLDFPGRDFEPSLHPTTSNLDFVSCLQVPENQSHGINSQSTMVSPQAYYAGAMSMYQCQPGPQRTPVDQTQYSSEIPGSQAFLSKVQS
aryl hydrocarbon receptor (AhR), sequence (P53762 whole entry partner): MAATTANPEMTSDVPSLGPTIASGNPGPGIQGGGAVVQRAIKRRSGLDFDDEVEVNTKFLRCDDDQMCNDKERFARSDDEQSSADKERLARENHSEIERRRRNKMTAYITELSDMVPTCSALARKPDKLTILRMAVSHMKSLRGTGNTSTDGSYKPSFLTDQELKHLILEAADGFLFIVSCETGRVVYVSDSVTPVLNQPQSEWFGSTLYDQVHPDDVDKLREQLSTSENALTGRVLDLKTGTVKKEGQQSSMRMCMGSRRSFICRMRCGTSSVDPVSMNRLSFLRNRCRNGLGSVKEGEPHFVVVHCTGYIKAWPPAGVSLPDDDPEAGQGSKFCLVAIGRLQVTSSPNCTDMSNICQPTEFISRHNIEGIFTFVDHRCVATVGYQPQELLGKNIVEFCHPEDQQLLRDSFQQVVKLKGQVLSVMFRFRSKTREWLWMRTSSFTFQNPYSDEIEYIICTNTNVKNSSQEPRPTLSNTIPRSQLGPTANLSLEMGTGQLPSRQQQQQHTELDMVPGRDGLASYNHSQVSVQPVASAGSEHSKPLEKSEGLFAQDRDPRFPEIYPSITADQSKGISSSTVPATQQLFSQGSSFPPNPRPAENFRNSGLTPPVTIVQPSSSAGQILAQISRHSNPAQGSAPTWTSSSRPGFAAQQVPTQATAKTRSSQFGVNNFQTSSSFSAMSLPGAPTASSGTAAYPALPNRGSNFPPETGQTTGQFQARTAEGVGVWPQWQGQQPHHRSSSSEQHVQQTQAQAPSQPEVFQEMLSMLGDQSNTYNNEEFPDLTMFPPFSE

Row | Compound | LOEC, AhR (increased activity) [1, 4] | LOEC (lowest effect concentration), ER ([2]; chemical alone, MVLN cells) | MOEC (maximal effect concentration), ER ([2]; chemical alone, MVLN cells) | Cytotox (M), ER assay (MVLN cells) | LOEC, aromatase (inhibited activity) (aromatase (CYP19); JEG-3 cells) | MOEC, aromatase (inhibited activity) (aromatase (CYP19); JEG-3 cells) | concentration (range) of significant aromatase inhibition (aromatase (CYP19); JEG-3 cells) | Maximum % (maximum down-regulation / maximum inhibition, MI), aromatase (aromatase (CYP19)) | concentrations of cytotoxicity, AR assay (CHO cells) | Cytotox (M), AR assay (CHO cells) | Cytotox (M), AhR assay (Hepa1.12cR cells) | also measured
1 | CCCCCCCCCc1ccc(O)cc1 [nNP, 4-n-nonylphenol] | 50 nM | 10 nM | 10 µM | 2.5e-05 M | 1 nM | 10 µM | 10^−9–10^−5 M | 71% | > 40 µM | > 4e-05 M | – | concentration of decreased TCDD-induced AhR activity ([1]; co-treatment with TCDD-EC50 (60 pM)): 10^−4 M; pEC50 [2]: 5.05; concentration giving further increase of the 25 pM E2-induced activity level [2]: 5 × 10^−6 M; concentration at which cytotoxicity was observed, ER assay (MVLN cells): 25 µM
2 | CC(C)(c1ccc(O)cc1)c1ccc(O)cc1 [BPA, Bisphenol A] | – | 100 nM | 10 µM | – | 100000 nM | 100 µM | 10^−4 M | 59% | > 40 µM | > 4e-05 M | > 10^−4 M | concentration of decreased TCDD-induced AhR activity [1]: 10^−4 M; concentration (range) of decreased AhR activity, alone ([1]; chemical alone): 5 × 10^−5 to 10^−4 M; LOEC, AhR (inhibited activity) ([1]; inhibited activity): 5 × 10^−5 ^d M; response on co-treatment with 25 pM E2 at 50 μM [2]: significant decreased response; concentration range of ER-mediated (estrogenic) response ([2]; chemical alone, MVLN cells): 10^−8 to 5 × 10^−5 M; pIC50 [3]: 6.00; concentration range of significant antiandrogenic effect ([3]; co-exposure with 0.1 nM R1881): 0.60 to 20 µM; LOEC, AR (inhibited activity) [3, 5]: 600 nM; MOEC, AR (inhibited activity) [3, 5]: 20 µM; Maximum % (maximum down-regulation / maximum inhibition, MI), AR ([3]; control inducer 0.1 nM R1881 set to 100%): 90%
3 | Clc1cc2c(cc1Cl)Oc1cc(Cl)c(Cl)cc1O2 [TCDD, 2,3,7,8-tetrachlorodibenzo-p-dioxin, reference compound] | 0.002 nM | – | – | – | – | – | – | – | – | – | – | AhR-CALUX activity relative to solvent control ([1]; 60 pM TCDD alone, 0.1% DMSO set to 1, mean ± SD): 14.84 ± 6.26 and 13.89 ± 7.32; MOEC, AhR (increased activity) [1, 4]: 10 nM; REP (relative potency), AhR ([1]; relative to TCDD): 1
4 | C[C@]12CCC(=O)C(O)=C1CC[C@@H]1[C@@H]2CC[C@]2(C)C(=O)CC[C@@H]12 [4-AOD, 4-androsten-4-ol-3,17-dione, reference compound] | – | – | – | – | 1 nM | 100 µM | – | 100% | – | – | – | pEC50 (aromatase (CYP19)): 8.22; pIC50 (aromatase (CYP19)): 8.22; EC100 of aromatase inhibitor control (aromatase (CYP19); JEG-3 cells): 10 µM; REP (relative potency), aromatase (aromatase (CYP19); REP-aromatase = LOEC 4-AOD/LOEC test compound): 1
5 | CCCCCCCCc1ccc(O)cc1 [nOP, 4-n-octylphenol] | – | – | – | 5e-05 M | – | – | – | – | – | > 2e-05 M | > 10^−4 M | Cytotox (M), aromatase assay (JEG-3 cells): 10^−4 M
